In US20120121691A1, “Method for Increasing the Production of a Specific ACYL-Chain Dihydroceramide(s) for Improving the Effectiveness of Cancer Treatments” (priority 2010, published 2012):
Read-outs that look alike come from different tables or passages of the source.

Legend:
CCRF-CEM = test system: CCRF-CEM
Protocol: Statistical analyses. Descriptive statistics and significance testing were performed using Microsoft Excel. The Excel function “t.test” was used for Student's T-testing (two-tailed, type-2). Propagated standard deviations were calculated using standard methods. Correlation analyses were performed using Sigmaplot 11 software. […]
Due to the confounding effect of in vitro fatty acid conversion, correlation analyses were used to identify significant relationships between absolute levels of specific sphingolipids and cytotoxicity. […]

COG-LL-317 = assay type: cell-based, human
Protocol: (§1) Statistical analyses. […] Propagated standard deviations were calculated using standard methods. Correlation analyses were performed using Sigmaplot 11 software.

COG-LL-332 = assay type: cell-based, human
Protocol: as §1

MOLT-4 = assay type: cell-based, human
Protocol: as §1

SMILES | Pearson Coef. (r), sphingolipid level vs cytotoxicity (CCRF-CEM) | Spearman Coef. (ρ), sphingolipid level vs cytotoxicity (CCRF-CEM) | Pearson Coef. (r), sphingolipid level vs cytotoxicity (COG-LL-317) | Spearman Coef. (ρ), sphingolipid level vs cytotoxicity (COG-LL-317) | Pearson Coefficient (r), sphingolipid level vs cytotoxicity (COG-LL-332) | Spearman Coefficient (ρ), sphingolipid level vs cytotoxicity (COG-LL-332) | Pearson Coef. (r), sphingolipid level vs cytotoxicity (MOLT-4) | Spearman Coef. (ρ), sphingolipid level vs cytotoxicity (MOLT-4) | Pearson Coef. (r), sphingolipid level vs cytotoxicity (CCRF-CEM; CCRF-CEM) | Spearman Coef. (ρ), sphingolipid level vs cytotoxicity (CCRF-CEM; CCRF-CEM)
CCCCCCCCCCCCCC=CC(O)C(CO)NC(=O)CCCCCCCCCCCCCCCCCCCCCCC (stereo not shown) [C24:0-Cer] | 0.40 | 0.41 | 0.48 | 0.25 | 0.39 | 0.38 | 0.33 | 0 | – | –
CCCCCCCCCCCCCCC[C@@H](O)[C@H](CO)NC(=O)CCCCCCCCCCCCC [C14:0-DHCer] | 0.12 | 0.20 | 0.16 | 0.10 | 0.06 | 0.18 | 0.13 | 0.35 | – | –
CCCCCCCCCCCCCC=CC(O)C(CO)NC(=O)CCCCCCCCCCCCCCCCCCC (stereo not shown) [C20:0-Cer] | 0.01 | 0.07 | −0.63 | −0.81 | −0.79 | −0.91 | −0.46 | −0.52 | – | –
CCCCCCCCCCCCCC=CC(O)C(CO)NC(=O)CCCCCCCCCCCCCCC (stereo not shown) [C16:0-Cer] | 0.25 | 0.03 | −0.48 | −0.50 | −0.09 | −0.05 | −0.62 | −0.76 | – | –
CCCCCCCCCCCCCCCCCCCCCCCC(=O)N[C@@H](CO)[C@H](O)CCCCCCCCCCCCCCC [C24:0-DHCer] | 0.58 | 0.84 | 0.89 | 0.91 | 0.74 | 0.83 | 0.79 | 0.88 | – | –
CCCCCCCCCCCCCC=CC(O)C(CO)NC(=O)CCCCCCCCCCCCCCCCCCCCC (stereo not shown) [C22:0-Cer] | 0.42 | 0.48 | 0.59 | 0.33 | 0.45 | 0 | 0.46 | 0.31 | – | –
CCCCCCCC/C=C\CCCCCCCCCCCCCC(=O)N[C@@H](CO)[C@H](O)CCCCCCCCCCCCCCC [C24:1-DHCer] | −0.17 | −0.07 | −0.29 | −0.21 | 0.14 | 0.45 | −0.04 | 0.12 | – | –
CCCCCCCCC=CCCCCCCCCCCCC(=O)NC(CO)C(O)CCCCCCCCCCCCCCC (stereo not shown) [C22:1-DHCer] | −0.13 | 0.22 | −0.28 | −0.26 | 0.07 | 0.62 | −2.5 × 10^−3 | 0.24 | – | –
CCCCCCCCC=CCCCCCCCCCCCC(=O)NC(CO)C(O)C=CCCCCCCCCCCCCC (stereo not shown) [C22:1-Cer] | −0.23 | −0.24 | −0.28 | −0.60 | −0.14 | −0.26 | −0.32 | −0.48 | – | –
CCCCCCCCCCCCCCC[C@@H](O)[C@@H](N)COP(=O)(O)O [Sphingaine-1-P] | 0.44 | 0.38 | – | – | – | – | – | – | – | –
CCCCCCCCCCCCCCCCCCCC(=O)N[C@@H](CO)[C@H](O)CCCCCCCCCCCCCCC [C20:0-DHCer] | 0.20 | 0.32 | −0.04 | 0.14 | −0.09 | 0 | 0.12 | 0.14 | – | –
CCCCCCCCCCCCCC=CC(O)C(CO)NC(=O)CCCCCCCCCCCCCCCCC (stereo not shown) [C18:0-Cer] | 0.14 | 0.07 | −0.45 | −0.60 | −0.54 | −0.38 | −0.33 | −0.45 | – | –
CCCCCCCCCCCCC/C=C/[C@@H](O)[C@@H](N)COP(=O)(O)O [Sphingosine-1-P] | – | – | – | – | – | – | – | – | −0.07 | 0.27
CCCCCCCCCCCCC/C=C/[C@@H](O)[C@@H](N)CO [Sphingosine] | 0.02 | −0.19 | – | – | – | – | – | – | – | –
